In one data set the target is T1, GPIIb/IIIa (Homo sapiens, UniProt P05106+P08514).
T1 construct: GPIIb/IIIa was either obtained from commercial sources (Enzyme Research Laboratories) or purified as outlined below; Outdated platelet concentrates; tissue Enzyme Research Laboratories (alternative source; no catalogue number given); host or cells: outdated platelet concentrates (Interstate Blood Bank)
In words: DDAB ELISA Type-2 screen of blood donor plasma (general population). The format is binding. To be noted: American Red Cross blood donors. The procedure:
(§1) In the ELISA Type-2 procedure, Costar Enzyme Immunoassay/Radioimmunoassay [EIA/RIA] 96 well flat bottom plates (medium binding [#3591]) were coated (4° C., 16 hours) with 250 ng of GPIIb/IIIa in phosphate buffered saline (PBS) containing 1 mM CaCl2 and 0.5 mM MgCl2 (PBS/Ca/Mg) in the presence or absence of the indicated GPIIb/IIIa antagonist (100 nM). After three washing steps (PBS/Ca/Mg containing 0.05% v/v Tween 20), plasma was diluted 1:5 in PBS/Ca/Mg containing 0.05% Tween 20 and added to the coated wells in the absence or presence of the indicated GPIIb/IIIa antagonist (100 nM) for 1 hour at room temperature. The wells were washed (PBS/Ca/Mg containing 0.05% v/v Tween 20) and incubated with peroxidase-labeled goat anti-human IgG (y) (Kirkegaard & Perry) for 1 hour at room temperature. The wells were washed (PBS/Ca/Mg containing 0.05% v/v Tween 20) and developed with o-phenyleninediamine [OPD] (0.4 mg/mL in phosphate citrate buffer containing sodium perborate [Sigma]). The change of absorbance was determined kinetically for 15 minutes at […] using a standard ELISA reader. Results are expressed as either delta OD [change in optical density] (Vmax plus compound)−(Vmax minus compound), or the ratio (Vmax plus compound/Vmax minus compound).
The occurrence of DDABs in the general population was tested. Plasma samples from blood donors were obtained from the American Red Cross and tested for reactivity with Compound A and Compound B in the DDAB ELISA Type-2 procedure. While the majority of the blood donors were negative in the DDAB ELISA, 2.2 and 14.6% donors presented a reactivity (delta>3) with Compound A and Compound B, respectively. A reactivity with a delta >5 was only evident in 1.3% and 7.1% of the blood donors with Compound A and Compound B, respectively. Thus, the prevalence and titer of pre-existing DDABs is relatively low in the general population and varies with the respective GPIIb/IIIa antagonist employed.
For orientation: In an ELISA, binding on a coated surface is turned into a signal by an enzyme label.

A further data set concerns gel purified platelets. Description: Distribution of DDABs from plasma to gel purified platelets, dose-response of antagonist, read by DDAB ELISA. The format is cell-based, human. The conditions noted are these: plasma of healthy donor with DDABs to Compound A. The procedure: Panel A: Citrate plasma was obtained from two patients (307, 330) and a chimpanzee (A264) presenting with thrombocytopenic episodes while treated with GPIIb/IIIa antagonists Compound A or Compound D, respectively. The resulting plasma was incubated (30 minutes, room temperature) with gel purified platelets in the absence (closed bars) or presence (open bars) of Compound A (307, 330), or Compound D (A264). Platelets were removed by centrifugation, and the resulting plasma was analyzed by a GPIIb/IIIa-specific DDAB ELISA. The ELISA determines the binding of antibodies to GPIIb/IIIa in the presence of Compound A (307, 330) or Compound D (A264). […] Panel B: Citrate plasma derived from chimpanzee A264 (open circles) or an apparently healthy donor (closed circles) containing DDABs to Compound A was incubated with gel purified platelets in the presence of the indicated dose-response of Compound D (A264) or Compound A (healthy donor) as in panel A. Platelet poor plasma was prepared and analyzed by the DDAB ELISA as in panel A. Results are expressed as percentage inhibition of DDABs in plasma in comparison to samples treated with platelets in the absence of GPIIb/IIIa antagonist.
For solution-phase absorption in the DDAB ELISA, gel filtered platelets were prepared. […] Platelet-containing fractions were manually collected and platelet concentration was determined using a Coulter Counter. […]

In a further data set the target is T2, immobilized GPIIb/IIIa (Homo sapiens, UniProt P05106+P08514).
T2 construct: GPIIb/IIIa was either obtained from commercial sources (Enzyme Research Laboratories) or purified as outlined below; Outdated platelet concentrates; tissue Enzyme Research Laboratories (alternative source; no catalogue number given); host or cells: outdated platelet concentrates (Interstate Blood Bank)
Description: GPIIb/IIIa DDAB ELISA: binding of plasma drug-dependent antibodies in presence versus absence of GPIIb/IIIa antagonist. The conditions noted are these: for reactivity of the thrombocytopenic chimpanzee plasma in the DDAB ELISA / reactivity of the patient's plasma in the DDAB ELISA: in words; for ratio mOD/minute in the presence versus absence of the respective compound: antagonist 100 nM. The procedure: as §1
In the ELISA Type-1 procedure, after coating with GPIIb/IIIa, the plates were blocked with 1% goat serum (VWR Scientific) and 0.1% casein (Sigma) in PBS/Ca/Mg containing 0.05% Tween 20 for 30 minutes at room temperature, followed by the addition of plasma (diluted in PBS/Ca/Mg containing 0.05% Tween 20, 1% v/v goat serum, 0.1% casein) for 1 hour at room temperature. The secondary antibody was diluted 1:10,000 in PBS/Ca/Mg containing 0.05% Tween 20 and 0.1% casein, and added for 1 hour at room temperature. The bound peroxidase-labeled IgG was detected with 3,3′,5,5′-tetramethylbenzidine (TMB, substrate kit; Pierce) and change in absorbance was determined for 5 minutes at […]. In addition, in the ELISA Type-1 procedure, the respective GPIIb/IIIa antagonist (100 nM) was present in the appropriate wells throughout all incubation and washing steps. The ELISA Type-1 procedure with optimized blocking conditions combined with further purification of the GPIIb/IIIa reduced the background, resulting in increased signal to noise ratio. The immunoglobulin class of DDABs was determined using peroxidase-labeled murine monoclonal antibodies to human Ig (Zymed) as the detection step in the modified ELISA protocol. For these experiments, normal goat serum was replaced with normal murine serum (Zymed).
The ability of DDABs present in plasma from a patient and a chimpanzee to bind to immobilized GPIIb/IIIa in the presence of various GPIIb/IIIa antagonists were compared. Results are expressed as the ratio mOD/minute in the presence versus absence of the respective compound.
(§2) The reactivity of the patient's plasma with Compound A and metabolites thereof was compared. Metabolites of Compound A were isolated from rat urine and tested for their ability to prevent platelet aggregation in platelet-rich plasma. The ability of DDABs present in plasma from a patient to bind to GPIIb/IIIa in the presence of the indicated metabolites of Compound A was tested using the GPIIb/IIIa DDAB ELISA. All three metabolites of Compound A were active in preventing ADP-induced platelet aggregation using platelet rich plasma. While the metabolites only differ from the parental compound (Compound A) with respect to hydroxylation of a single carbon atom, the reactivity of the patient's DDABs with metabolite M-3 was only 50% and that with metabolite M-2 was undetectable.

A short description of data set [1]: Blood concentration in dosed patients. It is filed as in vivo.
Data set [2] concerns platelet aggregation in platelet-rich plasma. Description: ADP-induced platelet aggregation in platelet-rich plasma (PRP). The format is cell-based. The procedure: as §2
The mark [3] stands for this setting: plasma #330 (thrombocytopenic patient treated with Compound A).
Setting [4] is: plasma A264 (thrombocytopenic chimpanzee dosed with Compound D).

pIC50: −log10 of the molar value.

Broadly, the pIC50 is −log10 of the IC50, conventionally taken in molar units.

T1 sequence (P08514 32-887 limits assumed): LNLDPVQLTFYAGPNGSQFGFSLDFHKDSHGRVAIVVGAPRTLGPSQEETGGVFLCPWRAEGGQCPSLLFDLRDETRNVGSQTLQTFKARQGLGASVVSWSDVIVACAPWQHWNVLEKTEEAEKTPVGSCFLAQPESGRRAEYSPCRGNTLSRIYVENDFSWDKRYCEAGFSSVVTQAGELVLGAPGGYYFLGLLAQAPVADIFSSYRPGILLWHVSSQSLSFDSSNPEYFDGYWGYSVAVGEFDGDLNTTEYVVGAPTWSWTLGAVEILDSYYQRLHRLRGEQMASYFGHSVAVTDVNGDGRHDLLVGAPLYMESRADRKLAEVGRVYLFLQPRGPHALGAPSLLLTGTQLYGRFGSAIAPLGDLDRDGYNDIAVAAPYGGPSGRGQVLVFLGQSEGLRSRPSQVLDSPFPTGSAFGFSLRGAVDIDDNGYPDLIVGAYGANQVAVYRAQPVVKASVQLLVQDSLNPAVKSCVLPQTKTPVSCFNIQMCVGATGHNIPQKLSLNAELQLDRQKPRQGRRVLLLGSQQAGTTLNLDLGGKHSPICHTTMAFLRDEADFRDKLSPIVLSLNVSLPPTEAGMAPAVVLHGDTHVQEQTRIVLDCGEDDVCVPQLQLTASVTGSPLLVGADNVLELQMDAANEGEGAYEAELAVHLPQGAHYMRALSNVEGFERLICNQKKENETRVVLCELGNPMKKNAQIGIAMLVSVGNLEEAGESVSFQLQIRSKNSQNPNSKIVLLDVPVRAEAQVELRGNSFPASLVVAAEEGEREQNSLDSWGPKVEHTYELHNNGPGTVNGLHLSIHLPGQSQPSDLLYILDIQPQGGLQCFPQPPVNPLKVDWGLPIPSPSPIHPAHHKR
T1 sequence (P08514 891-1039 limits assumed): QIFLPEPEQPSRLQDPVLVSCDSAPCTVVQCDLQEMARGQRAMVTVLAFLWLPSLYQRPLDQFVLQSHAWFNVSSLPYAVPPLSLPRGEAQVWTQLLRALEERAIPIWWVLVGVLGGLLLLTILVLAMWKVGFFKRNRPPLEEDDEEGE
T1 sequence (P05106 27-788): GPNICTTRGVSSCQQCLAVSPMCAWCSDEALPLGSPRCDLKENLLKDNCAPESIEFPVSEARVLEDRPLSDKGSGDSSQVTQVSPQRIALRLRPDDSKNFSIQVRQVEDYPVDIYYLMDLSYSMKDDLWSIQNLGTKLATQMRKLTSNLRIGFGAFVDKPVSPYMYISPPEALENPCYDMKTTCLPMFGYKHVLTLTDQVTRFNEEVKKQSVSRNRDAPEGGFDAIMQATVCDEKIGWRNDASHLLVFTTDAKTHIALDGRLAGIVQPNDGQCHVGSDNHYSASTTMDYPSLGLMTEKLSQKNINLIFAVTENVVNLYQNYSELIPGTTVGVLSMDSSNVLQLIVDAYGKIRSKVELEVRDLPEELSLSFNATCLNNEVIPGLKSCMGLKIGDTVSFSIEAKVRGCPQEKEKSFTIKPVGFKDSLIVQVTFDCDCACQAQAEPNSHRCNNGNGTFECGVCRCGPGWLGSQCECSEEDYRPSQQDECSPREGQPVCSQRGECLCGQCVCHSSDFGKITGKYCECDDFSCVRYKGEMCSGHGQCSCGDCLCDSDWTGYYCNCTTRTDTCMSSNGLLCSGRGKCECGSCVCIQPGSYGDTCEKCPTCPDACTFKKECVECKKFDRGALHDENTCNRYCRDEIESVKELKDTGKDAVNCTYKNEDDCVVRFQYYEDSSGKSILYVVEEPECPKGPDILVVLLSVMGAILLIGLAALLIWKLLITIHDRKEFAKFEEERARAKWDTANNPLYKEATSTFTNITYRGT
T2 sequence (P08514 32-887 limits assumed): as the sequence (P08514 32-887 limits assumed) above
T2 sequence (P08514 891-1039 limits assumed): as the sequence (P08514 891-1039 limits assumed) above
T2 sequence (P05106 27-788): as the sequence (P05106 27-788) above

For the molecule `CCCCOC(=O)N[C@@H](CNC(=O)C[C@H]1CC(c2ccc(C(=N)N)cc2)=NO1)C(=O)O` [Compound A, 2(S)-[(n-butoxycarbonyl)amino]-3-[[[3-[4-(aminoiminomethyl)phenyl]isoxazolin-5 (R)-yl]methylcarbonyl]amino]propionic acid], on GPIIb/IIIa, the “blood donors with a reactivity with a delta >5” value is recorded as 1.3% and the “donors presenting a reactivity (delta>3)” value amounted to 2.2%. Further, the pIC50 with gel purified platelets (estimated, read-out: IC50 (inhibition of DDABs in plasma by distribution to platelets)) was roughly 9.52. Besides, in the data set on gel purified platelets (30 minutes, room temperature), the “concentration required to completely shift the DDABs to the platelet surface” value is given as “Less than 1 nM”. For the same molecule, on immobilized GPIIb/IIIa (DDABs in plasma from a patient, binding to GPIIb/IIIa in presence of Compound A or its metabolites), the ELISA ratio came out at 13.5. Moreover, at immobilized GPIIb/IIIa, the “reactivity of the thrombocytopenic chimpanzee plasma in the DDAB ELISA” value is “no reactivity” and the “reactivity of the patient's plasma in the DDAB ELISA” value (“reactivity of the patient's plasma” below) was “reacts strongly”. For the same molecule, the “ratio mOD/minute in the presence versus absence of the respective compound” value (shortened to “ratio mOD/minute”) at immobilized GPIIb/IIIa (setting [3]) is on record as 9.2. On immobilized GPIIb/IIIa (setting [4]), the “ratio mOD/minute” value stood at 1.0. In data set [1], the Peak blood concentrations entry is given as “up to 50 nM”. In data set [2], the pIC50 was 7.49.

Consider `Cc1noc(C)c1S(=O)(=O)N[C@@H](CNC(=O)C[C@H]1CC(c2ccc(C(=N)N)cc2)=NO1)C(=O)O` [Compound B], for which, on GPIIb/IIIa, the “blood donors with a reactivity with a delta >5” value turned out to be 7.1% and the “donors presenting a reactivity (delta>3)” value is 14.6%. Further, on immobilized GPIIb/IIIa, the “reactivity of the thrombocytopenic chimpanzee plasma in the DDAB ELISA” value is on record as “no reactivity” and the “reactivity of the patient's plasma” value is “reacts strongly”. Besides, the “ratio mOD/minute” value on immobilized GPIIb/IIIa (setting [3]) came to 11.2. Further, on immobilized GPIIb/IIIa (setting [4]), the “ratio mOD/minute” value is reported as 0.8.

Take `Cc1ccc(S(=O)(=O)N[C@@H](CNC(=O)c2cc3n(n2)CCCN(CCC2CCNCC2)C3=O)C(=O)O)cc1` [Compound C, 2(S)-((4-methylphenylsulfonyl)amino]-3-[[[5,6,7,8-tetrahydro-4-oxo-5-[2-(piperidin-4-yl)ethyl]-4H-pyrazolo-[1,5-a][1,4]diazepin-2-yl]carbonyl]amino]propionic acid]: on immobilized GPIIb/IIIa, the “reactivity of the thrombocytopenic chimpanzee plasma in the DDAB ELISA” value is on record as “less” and the “reactivity of the patient's plasma” value was “no reactivity”. For the same molecule, the “ratio mOD/minute” value at immobilized GPIIb/IIIa (setting [3]) turned out to be 1.0. The “ratio mOD/minute” value at immobilized GPIIb/IIIa (setting [4]) came out at 5.4.

Regarding `O=C(NC[C@H](NS(=O)(=O)c1cccnc1)C(=O)O)c1cc2cc(CCC3CCNCC3)sc2s1` [Compound D, 5-[2-(piperdin-4-yl)ethyl]thieno[2,3-b]thiophene-2-N-(3-2(S)-(3-pyridinylsulfonylamino)propionic acid]carboxamide], at immobilized GPIIb/IIIa, the “reactivity of the thrombocytopenic chimpanzee plasma in the DDAB ELISA” value is recorded as “strongly reactive” and the “reactivity of the patient's plasma” value is reported as “reacts strongly”. On immobilized GPIIb/IIIa (setting [3]), the “ratio mOD/minute” value was determined as 4.9. In addition, the “ratio mOD/minute” value on immobilized GPIIb/IIIa (setting [4]) was determined as 14.4.

Values taken from patent publication US6623981B2, “Detection of patients at risk for developing integrin antagonist/agonist mediated disease states” (Bristol-Myers Squibb Company, priority 1998, dated 2003).
